# Reference: patent publication US20250339547A1, “MET BCL-XL INHIBITOR ANTIBODY-DRUG CONJUGATES AND METHODS OF USE THEREOF” (Novartis AG, priority 2022, published 2025)
# What was measured:
# Format in all cases: cell-based
# [1] = system: HCC78 lung cancer cell line; assay: HCC78 viability, single agent or 1:1 combination with Paclitaxel (CTG 120h), Example 8; details: for effect on the viability: HCC-78, single agents, FIG. 3
# Protocol: HCC78 lung cancer cell line was cultured in the media described above at 37° C. in a humidified atmosphere containing 5% CO2. Cells were seeded in 96 well clear bottom plates (96 well clear-bottom, white, Corning reference 3903) and exposed to the mAbs or ADCs as single agents or in 1:1 combination with Paclitaxel. When in 1:1 combination, both Paclitaxel and the mAb or ADC were serially diluted (9 concentrations each, triplicates). Effect on cell viability was assessed after 5 days of incubation at 37° C./5% CO2 by quantification of cellular ATP levels using CellTiter-Glo reagent (Promega Ref: G7571) at 75 μL reagent/well. All the conditions were tested in triplicates. Luminescence was quantified on a multipurpose plate reader. IC50s were calculated using standard four-parametric curve fitting. IC50 is defined as the compound concentration at which the CTG signal is reduced to 50% of that measured for the control. Two independent experiments were performed (N1 and N2).
# HCC827 = assay: Lung cancer cell line viability, single agent or 1:1 combination (CTG 120h), Example 7; details: Homo sapiens, HCC827, 120 h, HCC827, CTG 120 h
# Protocol: (§1) Cell lines were cultured in the media described above at 37° C. in a humidified atmosphere containing 5% CO2. Cells were seeded in 96 well clear bottom plates (96 well clear-bottom, white, Corning reference 3903) and exposed to the mAbs, mAbs mixture, ADCs or ADCs mixture as single agents or in 1:1 combination with Paclitaxel. When in 1:1 combination, both the combining partner (Paclitaxel) and the mAb, mAb mixture, ADC or ADC mixture were serially diluted (9 concentrations each, triplicates). Effect on cell viability was assessed after 5 days of incubation at 37° C./5% CO2 by quantification of cellular ATP levels using CellTiter-Glo reagent (Promega Ref: G7571) at 75 μL reagent/well. All the conditions were tested in triplicates. Luminescence was quantified on a multipurpose plate reader. IC50s were calculated using standard four-parametric curve fitting. IC50 is defined as the compound concentration at which the CTG signal is reduced to 50% of that measured for the control. Two independent experiments were performed (N1 and N2).
# NCI-H441 = assay: as above; details: Homo sapiens, NCI-H441, 120 h, NCI-H441, CTG 120 h
# Protocol: as §1
# NCI-H1838 = assay: as above; details: Homo sapiens, NCI-H1838, 120 h, NCI-H1838, CTG 120 h
# Protocol: as §1
# HCC78 = assay: as above; details: Homo sapiens, HCC78, 120 h, HCC78, CTG 120 h
# Protocol: as §1
# CALU1 = assay: as above; details: Homo sapiens, Calu-1, 120 h, CALU1, CTG 120 h
# Protocol: as §1
# HCC366 = assay: as above; details: HCC366, 120 h, HCC366, CTG 120 h
# Protocol: as §1
# LU65 = assay: as above; details: Homo sapiens, Lu-65, 120 h, LU65, CTG 120 h
# Protocol: as §1
# HCC4006 = assay: as above; details: Homo sapiens, HCC4006, 120 h, HCC4006, CTG 120 h
# Protocol: as §1
# NCI-H1975 = assay: as above; details: Homo sapiens, NCI-H1975, 120 h, NCI-H1975, CTG 120 h
# Protocol: as §1
# Hs766T = assay: Pancreatic cancer cell line viability, single agent or 1:1 combination (CTG 120h), Example 10
# Protocol: (§2) Cell lines were cultured in the media described above at 37° C. in a humidified atmosphere containing 5% CO2. Cells were seeded in 96 well clear bottom plates (96 well clear-bottom, white, Corning reference 3903) and exposed to the mAbs or ADCs as single agents or in 1:1 combination with Paclitaxel, Trametinib or Gemcitabine. When in 1:1 combination, both the combining partner (Paclitaxel, Trametinib or Gemcitabine) and the mAb or ADC were serially diluted (9 concentrations each, triplicates). Effect on cell viability was assessed after 5 days of incubation at 37° C./5% CO2 by quantification of cellular ATP levels using CellTiter-Glo reagent (Promega Ref: G7571) at 75 μL reagent/well. All the conditions were tested in triplicates. Luminescence was quantified on a multipurpose plate reader. IC50s were calculated using standard four-parametric curve fitting. IC50 is defined as the compound concentration at which the CTG signal is reduced to 50% of that measured for the control. Two independent experiments were performed (N1 and N2).
# BxPC-3 = assay: as above; details: Homo sapiens, BXPC-3, 120 h, BxPC-3, CTG 120 h
# Protocol: as §2
# Panc 10.05 = assay: as above; details: Homo sapiens, Panc1005, 120 h, Panc 10.05, CTG 120 h
# Protocol: as §2
# KP-4 = assay: as above; details: Homo sapiens, KP-4, 120 h, KP-4, CTG 120 h
# Protocol: as §2
# AsPC-1 = assay: as above; details: Homo sapiens, ASPC1, 120 h, AsPC-1, CTG 120 h
# Protocol: as §2
smiles,measurement,setting,value
"Cc1c(Nc2nc3ccccc3s2)nnc2c1CCCN2c1ccc(-c2cnn(C[C@]34C[C@]5(C)C[C@](C)(C3)C[C@@](OCCNCCCO)(C5)C4)c2C)c(C(=O)O)n1 [P25, 6-[3-(1,3-benzothiazol-2-ylamino)-4-methyl-6,7-dihydro-5H-pyrido[2,3-c]pyridazin-8-yl]-3-[1-[[3-[2-(3-hydroxypropylamino)ethoxy]-5,7-dimethyl-1-adamantyl]methyl]-5-methyl-pyrazol-4-yl]pyridine-2-carboxylic acid]",effect on the viability,[1],induced a dose dependent decrease in the viability
same,IC50,HCC827; Mean,108 nM
same,IC50,HCC827; n1,57.4 nM
same,IC50,HCC827; n2,158 nM
same,IC50,NCI-H441; Mean,1020 nM
same,IC50,NCI-H441; n1,1010 nM
same,IC50,NCI-H441; n2,1030 nM
same,IC50,NCI-H1838; Mean,34 nM
same,IC50,NCI-H1838; n1,41.4 nM
same,IC50,NCI-H1838; n2,26.7 nM
same,IC50,HCC78; Mean,2260 nM
same,IC50,HCC78; n1,3220 nM
same,IC50,HCC78; n2,1310 nM
same,IC50,CALU1; Mean,14.6 nM
same,IC50,CALU1; n1,1.78 nM
same,IC50,CALU1; n2,14.6 nM
same,IC50,HCC366; Mean,29.4 nM
same,IC50,HCC366; n1,14.9 nM
same,IC50,HCC366; n2,43.8 nM
same,IC50,LU65; Mean,> 10000 nM
same,IC50,LU65; n1,5610 nM
same,IC50,LU65; n2,> 10000 nM
same,IC50,HCC4006; Mean,7460 nM
same,IC50,HCC4006; n1,7460 nM
same,IC50,HCC4006; n2,> 10000 nM
same,IC50,NCI-H1975; Mean,9030 nM
same,IC50,NCI-H1975; n1,9030 nM
same,IC50,NCI-H1975; n2,> 10000 nM
same,IC50,Hs766T; mean,1640 nM
same,IC50,Hs766T; n1,1900 nM
same,IC50,Hs766T; n2,1370 nM
same,IC50,BxPC-3; mean,21800 nM
same,IC50,BxPC-3; n1,20800 nM
same,IC50,BxPC-3; n2,22800 nM
same,IC50,Panc 10.05; mean,73.5 nM
same,IC50,Panc 10.05; n1,61.6 nM
same,IC50,Panc 10.05; n2,85.3 nM
same,IC50,KP-4; mean,17000 nM
same,IC50,KP-4; n1,14700 nM
same,IC50,KP-4; n2,19200 nM
same,IC50,AsPC-1; mean,244 nM
same,IC50,AsPC-1; n1,368 nM
same,IC50,AsPC-1; n2,121 nM
"CC(=O)O[C@H]1C(=O)[C@@]2(C)[C@H]([C@H](OC(=O)c3ccccc3)[C@]3(O)C[C@H](OC(=O)[C@H](O)[C@@H](NC(=O)c4ccccc4)c4ccccc4)C(C)=C1C3(C)C)[C@]1(OC(C)=O)CO[C@@H]1C[C@@H]2O [Paclitaxel, paclitaxel]",Maximal effect on the viability (viability decrease),"[1]; HCC-78, FIG. 3",80%
same,effect on the viability,[1],induced a dose dependent decrease in the viability
same,IC50,HCC827; Mean,5.27 nM
same,IC50,HCC827; n1,4.11 nM
same,IC50,HCC827; n2,6.42 nM
same,IC50,NCI-H441; Mean,6.48 nM
same,IC50,NCI-H441; n1,9.2 nM
same,IC50,NCI-H441; n2,3.75 nM
same,IC50,NCI-H1838; Mean,> 300 nM
same,IC50,NCI-H1838; n1,> 300 nM
same,IC50,NCI-H1838; n2,> 300 nM
same,IC50,HCC78; Mean,3.4 nM
same,IC50,HCC78; n1,2.52 nM
same,IC50,HCC78; n2,4.29 nM
same,IC50,CALU1; Mean,25.6 nM
same,IC50,CALU1; n1,13.7 nM
same,IC50,CALU1; n2,37.4 nM
same,IC50,HCC366; Mean,7.45 nM
same,IC50,HCC366; n1,4 nM
same,IC50,HCC366; n2,10.9 nM
same,IC50,LU65; Mean,29.7 nM
same,IC50,LU65; n1,32.4 nM
same,IC50,LU65; n2,27 nM
same,IC50,HCC4006; Mean,4.66 nM
same,IC50,HCC4006; n1,5.9 nM
same,IC50,HCC4006; n2,3.42 nM
same,IC50,NCI-H1975; Mean,2.53 nM
same,IC50,NCI-H1975; n1,3.34 nM
same,IC50,NCI-H1975; n2,1.72 nM
same,IC50,Hs766T; mean,> 30000 nM
same,IC50,Hs766T; n2,> 30000 nM
same,IC50,BxPC-3; mean,0.93 nM
same,IC50,BxPC-3; n1,0.6 nM
same,IC50,BxPC-3; n2,1.25 nM
same,IC50,Panc 10.05; mean,7.93 nM
same,IC50,Panc 10.05; n1,5.65 nM
same,IC50,Panc 10.05; n2,10.2 nM
same,IC50,KP-4; mean,2.33 nM
same,IC50,KP-4; n1,0.47 nM
same,IC50,KP-4; n2,4.19 nM
same,IC50,AsPC-1; mean,10.2 nM
same,IC50,AsPC-1; n1,12.4 nM
same,IC50,AsPC-1; n2,8.06 nM
